In PubChem BioAssay (NCI):
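Briefly, cells in 96-well plates were exposed to five compound concentrations for 48 h, and endpoints were estimated by linear interpolation. TGI is the concentration that stops growth completely.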

Assays:
Test in all cases: DTP human tumour cell line panel, 48 h
[1] = tested on: M14 melanoma
[2] = tested on: HL-60(TB) leukemia
[3] = tested on: NCI-H23 lung
[4] = tested on: HCC-2998 colon
[5] = tested on: HT29 colon
[6] = tested on: RXF 393 renal
[7] = tested on: DU-145 prostate
[8] = tested on: UACC-257 melanoma
[9] = tested on: BT-549 breast
[10] = tested on: CAKI-1 renal
[11] = tested on: SF-295 CNS
[12] = tested on: SF-268 CNS
[13] = tested on: PC-3 prostate
[14] = tested on: OVCAR-4 ovarian
[15] = tested on: SN12C renal
[16] = tested on: MDA-MB-435
[17] = tested on: MDA-MB-231 breast
[18] = tested on: SR leukemia
[19] = tested on: IGROV1 ovarian
[20] = tested on: UO-31 renal
[21] = tested on: SK-MEL-5 melanoma
[22] = tested on: LOX IMVI melanoma
[23] = tested on: 786-0 renal
[24] = tested on: OVCAR-8 ovarian
[25] = tested on: SK-OV-3 ovarian
[26] = tested on: MDA-N
[27] = tested on: OVCAR-3 ovarian
[28] = tested on: TK-10 renal
[29] = tested on: SNB-19 CNS
[30] = tested on: HOP-92 NSCLC
[31] = tested on: T-47D breast
[32] = tested on: CCRF-CEM leukemia
[33] = tested on: HS 578T breast
[34] = tested on: NCI/ADR-RES ovarian
[35] = tested on: HCT-116 colon
[36] = tested on: NCI-H522 lung
[37] = tested on: COLO 205 colon
[38] = tested on: NCI-H460 lung
[39] = tested on: EKVX NSCLC
[40] = tested on: U251 CNS
[41] = tested on: MCF7 breast
[42] = tested on: OVCAR-5 ovarian
[43] = tested on: MALME-3M melanoma
[44] = tested on: HOP-62 NSCLC
[45] = tested on: ACHN renal
[46] = tested on: UACC-62 melanoma
[47] = tested on: A498 renal
[48] = tested on: SNB-75 CNS
[49] = tested on: SK-MEL-28 melanoma
[50] = tested on: MOLT-4 leukemia
[51] = tested on: A549 NSCLC
[52] = tested on: SK-MEL-2 melanoma
[53] = tested on: NCI-H226 lung
[54] = tested on: SF-539 CNS
[55] = tested on: SW-620 colon
[56] = tested on: HCT-15 colon
[57] = tested on: KM12 colon

## CCC(O)CC1OC2(CCC1C)CC1OC(=O)/C=C\C(C)(O)C(O)C(C)C(O)C(OC3CC(OC)C(O)C(C)O3)C(O)C(C)(O)CCC/C=C/C3CC(C)COC3(O)CC(O2)C1C (configuration not stated)
[1]
  TGI: 22 µM
[2]
  TGI: 10.6 µM
[3]
  TGI: 71 µM
[4]
  TGI: 62.3 µM
[5]
  TGI: 35.1 µM
[6]
  TGI: > 100 µM
[7]
  TGI: > 100 µM
[8]
  TGI: 15.4 µM
[9]
  TGI: 41.2 µM
[10]
  TGI: 33.3 µM
[11]
  TGI: > 41.8 µM
[12]
  TGI: 90.1 µM
[13]
  TGI: 20.4 µM
[14]
  TGI: 48.6 µM
[15]
  TGI: > 77.3 µM
[16]
  TGI: 25.4 µM
[17]
  TGI: > 77.9 µM
[18]
  TGI: > 80.7 µM
[19]
  TGI: 47.1 µM
[20]
  TGI: 68.7 µM
[21]
  TGI: 8.9 µM
[22]
  TGI: 36.7 µM
[23]
  TGI: > 89.4 µM
[24]
  TGI: 24.6 µM
[25]
  TGI: > 100 µM
[26]
  TGI: 23.8 µM
[27]
  TGI: 27.2 µM
[28]
  TGI: 37 µM
[29]
  TGI: > 100 µM
[30]
  TGI: > 100 µM
[31]
  TGI: 23.6 µM
[32]
  TGI: > 60.5 µM
[33]
  TGI: 38.2 µM
[34]
  TGI: 45.1 µM
[35]
  TGI: 29.5 µM
[36]
  TGI: 16.3 µM
[37]
  TGI: 17.2 µM
[38]
  TGI: > 75.2 µM
[39]
  TGI: 26 µM
[40]
  TGI: > 100 µM
[41]
  TGI: 30.2 µM
[42]
  TGI: 53 µM
[43]
  TGI: 35.5 µM
[44]
  TGI: 35.7 µM
[45]
  TGI: 50.9 µM
[46]
  TGI: 32.2 µM
[47]
  TGI: > 100 µM
[48]
  TGI: 27.3 µM
[49]
  TGI: 54.6 µM
[50]
  TGI: 7.84 µM
[51]
  TGI: > 100 µM
[52]
  TGI: 29.6 µM
[53]
  TGI: 27.3 µM
[54]
  TGI: 44.9 µM
[55]
  TGI: > 100 µM
[56]
  TGI: 56.8 µM
[57]
  TGI: 16.8 µM
